Experimental data reported in patent US9629866B2, “Use of cordycepin in manufacture of medicaments for anti-depression” (BEIJING GRAGEN BIOTECHNOLOGY CO. LTD., priority 2012, dated 2017).

Assays:
Format in all cases: in vivo
CD1 male mice [1] = experiment: Mice tail suspension test (animal depression model)
Method: In the mice tail suspension test, mice present the special quiet immobility state without any struggle in the tail suspension state, and antidepressant drugs can obviously shorten the duration of the immobility state. When tested, mice tails are fixed with clips, hanging upside-down. […] The time of immobility is recorded. The immobility indicator is “animal has no body movement in addition to breathing”. […] Laboratory Animal: CD1 mice, male, 25 g˜35 g, provided by Beijing Vital River Laboratories (VRL) (License No.: SCXK (Beijing), 2011-0011). Animals were kept in separate cages with free access to water; feed is provided by Laboratory Animal Center, Institute of Genetics and Developmental Biology, Chinese Academy of Sciences; laboratory mice ate ordinary feed. […] Drugs were delivered at 10 a.m. by intraperitoneal injection, 90 minutes after which tail suspension test statistics started. In mice tail suspension test, mice tails were stuck to a horizontal rail with tape 2 cm away from the tail tip, making animals upside down, whose heads were about 15 cm from the desktop. After observing for 6 minutes, the accumulative immobility time within the following 4 minutes was recorded. The immobility indicator was “animal has no body movement in addition to breathing”. Statistical Method: The laboratory results were all expressed by “mean value±SE”; two sample means were compared by t test.

CD1 male mice [2] = experiment: Mice forced swimming test; details: for forced swimming immobility time within 4 minutes: blank control 111.96±14.58 s, mean±SE, P<0.05
Source text: “Immobility” herein refers to that “animals stop struggling in the water, or stay in a floating state, only showing nostrils for breathing with only small body movement to keep the head floating on the water”. Before the test, the drugs to be screened are given. The animals in the condition of forced swimming cannot escape from the harsh environment, leading to despairing animal behaviors. […] Laboratory Animal: CD1 mice, male, provided by Beijing Vital River Laboratories (VRL) (License No.: SCXK (Beijing), 2011-0011). Animals were kept in separate cages a week before test, with a light and shade cycle of 12 h/12 h, at room temperature 20° C.˜22° C., and with free access to water and food. Feed is provided by Laboratory Animal Center, Institute of Genetics and Developmental Biology, Chinese Academy of Sciences. CD1 mice, 7 weeks old, 25 g-35 g, were used for test after acclimating for 1 week. Mice were divided into 5 groups randomly, 8 mice for each. They were treated in the same way as Example 1: Drugs were delivered at 10 a.m. by intraperitoneal injection, once a day for 3 days, then forced swimming test started. Forced swimming test: All CD1 mice in each group were separately and vertically put into the organic glass cylinder (40 cm×14 cm in diameter) with 15 cm-depth and 23° C. water. After recoding a video of each dose group and control group for 6 minutes, the accumulative immobility time within the following 4 minutes was compared between each group. […] The laboratory results were all expressed by “mean value±SE”; two sample means were compared by t test.

CD1 male mice [3] = experiment: Mice open field test to verify central excitability; details: measuring time 1 h/mouse, control 424.15+82.78 s, Anova p>0.05, N=12
Source text: Laboratory materials and methods are the same as Example 1 and Example 2.
Considering that the reduced immobility time of animals in classic animal depression models may be due to the central excitability effect of drugs, we conducted a mice open field test to verify the central excitability of cordycepin. Mice were processed 1 d before the open field behavior test. They were kept in the open box with 80 cm in both length and width, 40 cm in height, black wall, 16 equal sections in area, and indoor sound insulation. After the test started, mice were put in the middle of the box, and the time of mice staying in the central 4 sections was taken as a parameter. The measuring time was 1 h/mouse every time. […] Besides, there is no rising trend, so for cordycepin, the possibility of causing the manic state can be ruled out.

[4] = high-dose 12.5 mg/kg i.p. once a day for 3 days
[5] = low-dose 5 mg/kg i.p. once a day for 3 days

With `Nc1ncnc2c1ncn2[C@@H]1O[C@H](CO)C[C@H]1O` [cordycepin, 3′-deoxyadenosine] the “time needed for antidepressant effect to be very obvious” value (CD1 male mice [1]; high-dose 12.5 mg/kg i.p.) was 1.5 h, the “decrease of tail suspension immobility time vs blank control” value (CD1 male mice [1]; high-dose 12.5 mg/kg i.p., 90 min after injection) was 60.8% and the “tail suspension immobility time” value (CD1 male mice [1]; high-dose 12.5 mg/kg i.p., 90 min after injection, blank control 86.43±20.37 s, mean±SE, P<0.05) was 33.86 ± 7.46 s. The “tail suspension immobility time vs control” value (CD1 male mice [1]; low-dose 5 mg/kg i.p., 90 min after injection) was “has not been significantly reduced”, the “antidepressant effect compared with imipramine (15 mg/kg)” value (CD1 male mice [2]; [4]) was “stronger antidepressant effects” and the “decrease of forced swimming immobility time vs blank control” value (CD1 male mice [2]; [4]) was 68.8%. For the same compound, the “forced swimming immobility time within 4 minutes” value (CD1 male mice [2]; [4]) was 34.94 ± 12.16 s, the “decrease of forced swimming immobility time vs blank control” value (CD1 male mice [2]; [5]) was 37.6% and the “forced swimming immobility time within 4 minutes” value (CD1 male mice [2]; [5]) was 69.88 ± 10.25 s. For the same compound, the “time staying in the central 4 sections” value (CD1 male mice [3]; high-dose group) was 379.88+95.28 s and the “time staying in the central 4 sections” value (CD1 male mice [3]; low-dose group) was 399.75+72.25 s.
